Measured values from patent US5688764A, “Insecticidal peptides from spider venom” (NPS Pharmaceuticals, Inc., priority 1995, dated 1997).

How the values were obtained:
Balb-C mice = experiment: Mammalian toxicity by intraperitoneal injection in mice; format: in vivo; details: male Balb-C mice, 50 micrograms per mouse (~2 mg/kg), up to 120 hours after treatment
Method: Peptide A was tested for mammalian toxicity by intraperitoneal injection in mice. Two male Balb-C mice (~25 grams each) were injected with peptide A in physiological saline, at a dose of 50 micrograms per mouse (~2 mg/kg). Two control mice were injected with an equal volume of saline carrier. The mice were observed continuously for 1.5 hours, and periodically thereafter.

[1] = tested on: tobacco budworm (TBW), Heliothis virescens; experiment: Bioassay: injection into the abdomen of fifth instar tobacco budworm larvae, paralysis; format: in vivo; details: probit regression
Method: Whole venom was isolated by known techniques from the spider, Calisoga. The whole venom, or peptides purified therefrom, were dissolved in sterile buffered physiological saline. For testing and characterization purposes, venom and toxins were administered by injection into the abdomen of fifth instar larvae of the tobacco budworm (TBW), Heliothis virescens. Control larvae were injected with an equal volume of saline. After treatment, the insects were placed individually in Petri dishes, with food, and observed.
Insects that could not right themselves within thirty seconds of being placed on their backs or side were considered paralyzed. Fifty percent paralytic dose (PD50) values were calculated by probit regression (see Example 2). Raymond, M., Ser. Ent. med et Parasitol, 22(2), 117-121 (1985).
Whole venom from a spider, Calisoga sp. (Aranae: Nemesiidae), was dissolved in the desired volume of sterile, buffered physiological saline. Samples were administered by injection into the abdomen of the fifth instar larvae of the tobacco budworm, Heliothis virescens, as previously described. Control larvae were injected with equal volumes of saline.

Manduca sexta larvae = details: toxin secreted in the course of infection by recombinant baculovirus; unnatural host; cited from earlier work
[2] = tested on: Heliothis virescens larvae; details: toxin secreted in the course of infection by recombinant baculovirus; natural host; cited from earlier work

Molecule: peptide A (CISARYPCSNSKDCCSGNCGTFWTCYIRKDPCSKECLAP)
- mammalian toxicity: effects observed (Balb-C mice): No effects were noted
- PD50 95% confidence interval [1]: 1.70 to 3.22 µg/g
- PD50 (fifty percent paralytic dose) [1]: 2.37 µg/g

Molecule: peptide B (CISARYPCSNSKDCCSGNCGTFWTCFIRKDPCSKECLAP)
- PD50 95% confidence interval [1]: 1.72 to 8.0 µg/g
- PD50 (fifty percent paralytic dose) [1]: 3.7 µg/g

B1: AaIT: scorpion peptide insect toxin expressed from a recombinant baculovirus (McCutchen et al. 1991) (protein, UniProt P01497 19-88, looked up)
Beta-insect excitatory toxin 1: KKNGYAVDSSGKAPECLLSNYCNNECTKVHYADKGYCCLLSCYCFGLNDDKKVLEISDTRKSYCDTTIIN
- effect on larvae (paralysis) (Manduca sexta larvae): caused paralysis
- effect on larvae (paralysis) [2]: caused paralysis
